# The source made the active and inactive calls. The calls are words filed in the database; no cut-off is given here.
# How the values were obtained:
# Mus musculus [1] = assay: Neurotoxicity in Mus musculus (mouse) assessed as motor impairment at 30 to 300 mg/kg, ip measured at 0.5 hr by rotarod test; assay type: toxicity, organism-based; set-up: dose 30-300 mg/kg, route intraperitoneal; conditions: in vivo
# Mus musculus [2] = assay: Neurotoxicity in Mus musculus (mouse) assessed as motor impairment at 30 to 300 mg/kg, ip measured at 4 hr by rotarod test; assay type: toxicity, organism-based; set-up: dose 30-300 mg/kg, route intraperitoneal; conditions: in vivo
# Mus musculus [3] = assay: Anticonvulsant activity in Mus musculus (mouse) assessed as protection against scMET-induced clonic seizures at 30 to 300 mg/kg, ip measured at 0.5 to 4 hr; assay type: functional, organism-based
# Mus musculus [4] = assay: Anticonvulsant activity in Mus musculus (mouse) assessed as protection against maximal-electric shock-induced seizures at 30 to 300 mg/kg, ip measured at 0.5 hr; assay type: functional, organism-based
# Mus musculus [5] = assay: Anticonvulsant activity in Mus musculus (mouse) assessed as protection against maximal-electric shock-induced seizures at 30 to 300 mg/kg, ip measured at 4 hr; assay type: functional, organism-based
# Mus musculus [6] = assay: Neurotoxicity in Mus musculus (mouse) assessed as motor impairment at 100 mg/kg, ip measured at 1 hr by rotarod test relative to control; assay type: toxicity, organism-based; set-up: dose 100 mg/kg, route intraperitoneal; conditions: in vivo
# Mus musculus [7] = assay: Anticonvulsant activity in Mus musculus (mouse) assessed as protection against 6 Hz psychomotor-induced clonic seizures at 100 mg/kg, ip measured at 2 hr relative to control; assay type: functional
# Mus musculus [8] = assay: Neurotoxicity in Mus musculus (mouse) assessed as motor impairment at 100 mg/kg, ip measured at 4 hr by rotarod test relative to control; assay type: toxicity, organism-based; set-up: dose 100 mg/kg, route intraperitoneal; conditions: in vivo
# Mus musculus [9] = assay: Anticonvulsant activity in Mus musculus (mouse) assessed as protection against 6 Hz psychomotor-induced clonic seizures at 100 mg/kg, i.p. measured at 1 hr relative to control; assay type: functional
# Mus musculus [10] = assay: Neurotoxicity in Mus musculus (mouse) assessed as motor impairment at 100 mg/kg, ip measured at 0.25 hr by rotarod test relative to control; assay type: toxicity, organism-based; set-up: dose 100 mg/kg, route intraperitoneal; conditions: in vivo
# Mus musculus [11] = assay: Anticonvulsant activity in Mus musculus (mouse) assessed as protection against 6 Hz psychomotor-induced clonic seizures at 100 mg/kg, i.p. measured at 0.25 hr relative to control; assay type: functional
# Mus musculus [12] = assay: Neurotoxicity in Mus musculus (mouse) assessed as motor impairment at 100 mg/kg, ip measured at 2 hr by rotarod test relative to control; assay type: toxicity, organism-based; set-up: dose 100 mg/kg, route intraperitoneal; conditions: in vivo
# Mus musculus [13] = assay: Anticonvulsant activity in i.p. dosed Mus musculus (mouse) assessed as protection against maximal-electric shock-induced seizures measured at 4 hr; assay type: functional; conditions: ip, read-out: MED
# Mus musculus [14] = assay: Neurotoxicity in Mus musculus (mouse) assessed as motor impairment at 100 mg/kg, ip measured at 0.5 hr by rotarod test relative to control; assay type: toxicity, organism-based; set-up: dose 100 mg/kg, route intraperitoneal; conditions: in vivo
# Mus musculus [15] = assay: Anticonvulsant activity in Mus musculus (mouse) assessed as protection against 6 Hz psychomotor-induced clonic seizures at 100 mg/kg, i.p. measured at 4 hr relative to control; assay type: functional
# Mus musculus [16] = assay: Anticonvulsant activity in Mus musculus (mouse) assessed as protection against 6 Hz psychomotor-induced clonic seizures at 100 mg/kg, i.p. measured at 0.5 hr relative to control; assay type: functional
# Mus musculus [17] = assay: Neurotoxicity in i.p. dosed Mus musculus (mouse) assessed as motor impairment measured at 4 hr by rotarod test; assay type: toxicity, organism-based; conditions: in vivo, ip
# Mus musculus [18] = assay: Anticonvulsant activity in i.p. dosed Mus musculus (mouse) assessed as protection against maximal-electric shock-induced seizures measured at 0.5 hr; assay type: functional; conditions: ip, read-out: MED
structure (smiles),measurement,setting,value
Cc1ccc(NC(=O)N/N=C/c2ccccc2Cl)cc1,Activity,Mus musculus [1],Non-toxic
same,Activity,Mus musculus [2],Non-toxic
same,Activity,Mus musculus [3],inactive
same,Activity,Mus musculus [4],inactive
same,Activity,Mus musculus [5],inactive
C/C(=N\NC(=O)Nc1ccccc1Cl)c1ccc(C)cc1,Activity,Mus musculus [1],Non-toxic
same,Activity,Mus musculus [2],Non-toxic
same,Activity,Mus musculus [3],inactive
same,Activity,Mus musculus [4],inactive
same,Activity,Mus musculus [5],inactive
C/C(=N\NC(=O)Nc1ccc(C)cc1)c1ccccc1O,Activity,Mus musculus [1],Non-toxic
same,Activity,Mus musculus [2],Non-toxic
same,Activity,Mus musculus [3],inactive
same,Activity,Mus musculus [4],inactive
same,Activity,Mus musculus [5],inactive
O=C(N/N=C/c1ccc(Cl)cc1)Nc1ccccc1Cl,Activity,Mus musculus [1],Non-toxic
same,Activity,Mus musculus [2],Non-toxic
same,Activity,Mus musculus [3],inactive
same,Activity,Mus musculus [4],inactive
same,Activity,Mus musculus [5],inactive
C/C(=N\NC(=O)Nc1ccccc1Cl)c1ccc(Cl)cc1,Activity,Mus musculus [6],Non-toxic
same,Activity,Mus musculus [7],inactive
same,Activity,Mus musculus [8],Non-toxic
same,Activity,Mus musculus [1],Non-toxic
same,Activity,Mus musculus [9]; route intraperitoneal,50%
same,Activity,Mus musculus [10],Non-toxic
same,Activity,Mus musculus [11],inactive
same,Activity,Mus musculus [12],Non-toxic
same,minimal effective dose,Mus musculus [13],100 mg/kg
same,Activity,Mus musculus [14],Non-toxic
same,Activity,Mus musculus [15],inactive
same,Activity,Mus musculus [2],Non-toxic
same,Activity,Mus musculus [3],inactive
same,Activity,Mus musculus [16],inactive
same,Activity,Mus musculus [4],inactive
O=C(N/N=C/c1ccc(O)cc1)Nc1ccccc1Cl,Activity,Mus musculus [6],Non-toxic
same,Activity,Mus musculus [7]; route intraperitoneal,50%
same,Activity,Mus musculus [8],Non-toxic
same,Activity,Mus musculus [1],Non-toxic
same,Activity,Mus musculus [9]; route intraperitoneal,50%
same,Activity,Mus musculus [10],Non-toxic
same,Activity,Mus musculus [11]; route intraperitoneal,50%
same,Activity,Mus musculus [12],Non-toxic
same,minimal effective dose,Mus musculus [13],100 mg/kg
same,Activity,Mus musculus [14],Non-toxic
same,Activity,Mus musculus [15],inactive
same,Activity,Mus musculus [2],Non-toxic
same,Activity,Mus musculus [3],inactive
same,Activity,Mus musculus [16]; route intraperitoneal,100%
same,Activity,Mus musculus [4],inactive
COc1ccc(/C=N/NC(=O)Nc2ccccc2Cl)cc1OC,Activity,Mus musculus [6],Non-toxic
same,Activity,Mus musculus [7]; route intraperitoneal,25%
same,Activity,Mus musculus [8],Non-toxic
same,Activity,Mus musculus [1],Non-toxic
same,Activity,Mus musculus [9],inactive
same,Activity,Mus musculus [10],Non-toxic
same,Activity,Mus musculus [11]; route intraperitoneal,25%
same,Activity,Mus musculus [12],Non-toxic
same,minimal effective dose,Mus musculus [13],100 mg/kg
same,Activity,Mus musculus [14],Non-toxic
same,Activity,Mus musculus [15]; route intraperitoneal,25%
same,Activity,Mus musculus [2],Non-toxic
same,Activity,Mus musculus [3],inactive
same,Activity,Mus musculus [16],inactive
same,Activity,Mus musculus [4],inactive
COc1ccc(/C(C)=N/NC(=O)Nc2ccccc2Cl)cc1,Activity,Mus musculus [1],Non-toxic
same,MTC,Mus musculus [17],300 mg/kg
same,minimal effective dose,Mus musculus [18],300 mg/kg
same,minimal effective dose,Mus musculus [13],300 mg/kg
same,Activity,Mus musculus [3],inactive
O=C(N/N=C/c1ccco1)Nc1ccccc1Cl,Activity,Mus musculus [1],Non-toxic
same,Activity,Mus musculus [2],Non-toxic
same,Activity,Mus musculus [3],inactive
same,Activity,Mus musculus [4],inactive
same,Activity,Mus musculus [5],inactive
CC(=O)C/C(C)=N/NC(=O)Nc1ccc(C)cc1,Activity,Mus musculus [1],Non-toxic
same,Activity,Mus musculus [2],Non-toxic
same,Activity,Mus musculus [3],inactive
same,Activity,Mus musculus [4],inactive
same,Activity,Mus musculus [5],inactive
COc1cc(/C=N/NC(=O)Nc2ccc(C)cc2)ccc1O,Activity,Mus musculus [1],Non-toxic
same,Activity,Mus musculus [2],Non-toxic
same,Activity,Mus musculus [3],inactive
same,Activity,Mus musculus [4],inactive
same,Activity,Mus musculus [5],inactive
C/C(=N\NC(=O)Nc1ccc(C)cc1)c1ccc(O)cc1O,Activity,Mus musculus [1],Non-toxic
same,Activity,Mus musculus [2],Non-toxic
same,Activity,Mus musculus [3],inactive
same,Activity,Mus musculus [4],inactive
same,Activity,Mus musculus [5],inactive
O=C(N/N=C/c1cccc(O)c1)Nc1ccccc1Cl,Activity,Mus musculus [1],Non-toxic
same,Activity,Mus musculus [2],Non-toxic
same,Activity,Mus musculus [3],inactive
same,Activity,Mus musculus [4],inactive
same,Activity,Mus musculus [5],inactive
O=C(N/N=C/c1ccc(Cl)cc1Cl)Nc1ccccc1Cl,Activity,Mus musculus [1],Non-toxic
same,Activity,Mus musculus [2],Non-toxic
same,Activity,Mus musculus [3],inactive
same,Activity,Mus musculus [4],inactive
same,Activity,Mus musculus [5],inactive
Cc1ccc(NC(=O)N/N=C/c2cccc(O)c2)cc1,Activity,Mus musculus [6],Non-toxic
same,Activity,Mus musculus [7]; route intraperitoneal,25%
same,Activity,Mus musculus [8],Non-toxic
same,Activity,Mus musculus [1],Non-toxic
same,Activity,Mus musculus [9],inactive
same,Activity,Mus musculus [10],Non-toxic
same,Activity,Mus musculus [11]; route intraperitoneal,50%
same,Activity,Mus musculus [12],Non-toxic
same,Activity,Mus musculus [14],Non-toxic
same,Activity,Mus musculus [15],inactive
same,Activity,Mus musculus [2],Non-toxic
same,Activity,Mus musculus [3],inactive
same,Activity,Mus musculus [16]; route intraperitoneal,25%
same,Activity,Mus musculus [4],inactive
same,Activity,Mus musculus [5],inactive
Cc1ccc(NC(=O)NN=C2CCCCC2)cc1,Activity,Mus musculus [6],Non-toxic
same,Activity,Mus musculus [7],inactive
same,Activity,Mus musculus [8],Non-toxic
same,Activity,Mus musculus [1],Non-toxic
same,Activity,Mus musculus [9]; route intraperitoneal,50%
same,Activity,Mus musculus [10],Non-toxic
same,Activity,Mus musculus [11]; route intraperitoneal,25%
same,Activity,Mus musculus [12],Non-toxic
same,minimal effective dose,Mus musculus [13],300 mg/kg
same,Activity,Mus musculus [14],Non-toxic
same,Activity,Mus musculus [15]; route intraperitoneal,25%
same,Activity,Mus musculus [2],Non-toxic
same,Activity,Mus musculus [3],inactive
same,Activity,Mus musculus [16]; route intraperitoneal,100%
same,Activity,Mus musculus [4],inactive
NNC(=O)Nc1ccccc1Cl,Activity,Mus musculus [6],25%
same,Activity,Mus musculus [7]; route intraperitoneal,100%
same,Activity,Mus musculus [8],25%
same,Activity,Mus musculus [1],Non-toxic
same,Activity,Mus musculus [9]; route intraperitoneal,100%
same,Activity,Mus musculus [10],25%
same,Activity,Mus musculus [11]; route intraperitoneal,100%
same,Activity,Mus musculus [12],Non-toxic
same,Activity,Mus musculus [14],25%
same,Activity,Mus musculus [15],Active
same,Activity,Mus musculus [2],Non-toxic
same,Activity,Mus musculus [3],inactive
same,Activity,Mus musculus [16]; route intraperitoneal,100%
same,Activity,Mus musculus [4],inactive
same,Activity,Mus musculus [5],inactive
O=C(NN=C1CCCC1)Nc1ccccc1Cl,Activity,Mus musculus [1],Non-toxic
same,Activity,Mus musculus [2],Non-toxic
same,Activity,Mus musculus [3],inactive
same,Activity,Mus musculus [4],inactive
same,Activity,Mus musculus [5],inactive

# From ChEMBL document CHEMBL3045097, “Synthesis and anticonvulsant evaluation of 2-(substituted benzylidene/ethylidene)-N-(substituted phenyl)hydrazinecarboxamide analogues” (Med Chem Res, 2013)
